The test system of assay [1] is B78-D14 m.12,436^80% cells. Kind of assay: Cell sensitivity to inhibitors (IC50 from final confluency, IncuCyte). The class given is cell-based, mouse. Particulars: for IC50: Mus musculus. The procedure:
(§1) Cells were plated in a 96-well plate at 500 cells/well in 200 μL of cell culture media. Plates were incubated overnight at 37° C. and 5% CO2. The following day, media was replaced with 0-100 mM 2-DG in quadruplicate. Plates were imaged once every 4 hrs on the IncuCyte Zoom (Essen Bioscience) for 5 days. Final confluency measurements were calculated using the system algorithm and the IC50 was determined by GraphPad Prism.

Assay [2] deals with B78-D14 m.12,436^60% cells. The description is as above. The class given is cell-based, mouse. Particulars: for IC50: Mus musculus. The procedure:
as §1

In assay [3] the test system is B78-D14 m.11,944^60% cells. The description is as above. The class given is cell-based, mouse. Particulars: for IC50: Mus musculus. The procedure: as §1
The subject of a further assay is B78-D14 wild-type cells. Described as above. The class given is cell-based. To be noted: Mus musculus. The procedure:
as §1

In assay [4] the test system is metastatic melanoma. To be noted: of the 15 responders; cited from earlier work.
The test system of assay [5] is metastatic melanoma. The experiment in a line: Response of metastatic melanoma patient cohort (Riaz et al.) to nivolumab, stratified by tumour mtDNA mutation status. It is filed as in vivo, human. An excerpt: Mutation calls and calculated heteroplasmy were used to assign patients to mtDNA wildtype, <50% VAF or >50% VAF groups.
The subject of another assay is Hcmel12 tumours. Kind of assay: Manipulation of tumour-associated neutrophils with G-CSF or anti-Ly6G, with or without anti-PD1, in Hcmel12 tumours. It is filed as in vivo, mouse. Here is the method: To determine if neutrophil depletions were necessary for observed sensitivity to ICB, the inventors chose to manipulate the proportion of tumour-associated neutrophils using G-CSF and anti-Ly6G treatments. Hcmel12 wild-type, m.12,436^83% and cytoLbNOX cells were allografted into C57BL/6 mice and were put on G-CSF or anti-Ly6G treatment with or without antiPD1 (FIG. 43A).
For immunotherapy experiments, mice were put on a dosing regimen of 200 μg of anti-PD1 given intraperitoneally twice a week. The first dose was given 7 days post-injection and all mice were sacrificed at 21 or 13 days post-injection for B78 or HcMel12 cells respectively. Either 5 μg mouse recombinant G-CSF (Stemcell) or 100 μg anti-mouse Ly6G—clone 1A8 (2B Scientific) was given intraperitoneally every 2 days post-engraftment to mice for neutrophil depletion experiments.

Where [6] appears, read: m.12,436^80% cells, read-out: IC50.
The mark [7] stands for this setting: m.12,436^60% cells, read-out: IC50.
[8] abbreviates: wild-type cells, read-out: IC50.
The mark [9] stands for this setting: printed as mt.11944^80%, read-out: IC50.

Read-outs that look alike come from different tables or passages of the source.

The text below walks through data of patent US20260263567A1, “TUMOUR SENSITISATION TO CHECKPOINT INHIBITORS WITH REDOX STATUS MODIFIER” (CANCER RESEARCH TECHNOLOGY LIMITED, priority 2022, published 2026).

In general, IC50 refers to the concentration that gives 50% inhibition.

In the case of `O=CC[C@@H](O)[C@H](O)[C@H](O)CO` [2-DG, 2-deoxyglucose], the half-inhibitory concentration (IC50) in assay [1] (setting [6]) came out at 460 µM; in assay [2] (setting [7]) it was 810 µM; in assay [3] (m.11,944^60% cells, read-out: IC50), 1040 µM; in the assay on B78-D14 wild-type cells (setting [8]), 1620 µM. Besides, the “sensitivity compared with wild-type cells” value in assay [1] (m.12,436^80% cells) is given as “further enhanced”; in assay [2] (m.12,436^60% cells), “more sensitive”; in assay [3] (m.11,944^60% cells), “more sensitive”.

`CN(C)C(=N)N=C(N)N` [metformin]: the IC50 in assay [1] (setting [6]) was 5890 ± 710 µM; in assay [2] (setting [7]), 16600 ± 2430 µM; in assay [3] (setting [9]), 22900 ± 700 µM; in the assay on B78-D14 wild-type cells (setting [8]) it was 26300 ± 1490 µM. The “sensitivity compared with wild-type cells” value in assay [1] (m.12,436^80% cells), in assay [2] (m.12,436^60% cells) and in assay [3] (m.11,944^60% cells) was “enhanced sensitivity” in each case.

Consider `CC[C@H]1/C=C/C=C/C[C@@H](C)[C@H](O)[C@@](C)(O)C(=O)[C@@H](C)[C@H](O)[C@@H](C)C(=O)[C@@H](C)[C@H](O)[C@@H](C)/C=C/C(=O)O[C@@H]2[C@H](C)[C@H](CC1)O[C@]1(CC[C@H](C)[C@H](C[C@@H](C)O)O1)[C@H]2C` [oligomycin], for which the IC50 turned out to be 7.75 ± 0.56 µM in assay [1] (mt.12436^80% cells, read-out: IC50); 13.5 ± 3.32 µM in assay [2] (mt.12436^60% cells, read-out: IC50); 13.5 ± 3.32 µM in assay [3] (setting [9]); 13.8 ± 3.8 µM in the assay on B78-D14 wild-type cells (setting [8]). The “sensitivity compared with wild-type cells” value in assay [1] (m.12,436^80% cells), in assay [2] (m.12,436^60% cells) and in assay [3] (m.11,944^60% cells) was “None of the mutants demonstrated differential sensitivity” each time.

Consider `C=C(C)[C@H]1Cc2c(ccc3c2O[C@@H]2COc4cc(OC)c(OC)cc4[C@@H]2C3=O)O1` [rotenone], for which the IC50 in assay [1] turned out to be 0.493 ± 0.108 µM; in assay [2] it was 0.235 ± 0.035 µM; in assay [3], 0.205 ± 0.033 µM; in the assay with B78-D14 wild-type cells, 0.236 ± 0.026 µM. For the same molecule, the figures for the “sensitivity compared with wild-type cells” value in assay [1] (m.12,436^80% cells), in assay [2] (m.12,436^60% cells) and in assay [3] (m.11,944^60% cells) were “resistance compared to wild type”, “not differentially sensitive” and “not differentially sensitive”, respectively.

Turning to nivolumab, in the assay with metastatic melanoma [4], the complete responses was 3 and the partial responses is 12. Besides, the tumours responding in the assay on metastatic melanoma [5] (<50% VAF tumours) was determined as 17%. The same molecule had a tumours responding in the assay with metastatic melanoma [5] (>50% VAF tumours) of 40%. For the same molecule, the “likelihood to respond, >50% VAF tumours versus mtDNA wild-type or low VAF tumours” value in the assay on metastatic melanoma [5] (Example 1 analysis) is reported as 2.5 ×. For the same molecule, the “rate of response of >50% VAF cancers versus wild-type or <50% VAF cancer” value with metastatic melanoma [5] (Example 2 analysis) was 2.6 fold. For the same molecule, in the assay on metastatic melanoma [5] (mtDNA mutation status-naive cohort, 70 patients), the “cohort response rate, partial or complete responses” value was 22%. The “complete responders categorised as >50% VAF” value in the assay with metastatic melanoma [5] (out of the 3 complete responders) was 2.

B1: G-CSF: mouse recombinant G-CSF (Stemcell) (protein, UniProt P09920 31-208, looked up)
Granulocyte …: VPLVTVSALPPSLPLPRSFLLKSLEQVRKIQASGSVLLEQLCATYKLCHPEELVLLGHSLGIPKASLSGCSSQALQQTQCLSQLHSGLCLYQGLLQALSGISPALAPTLDLLQLDVANFATTIWQQMENLGVAPTVQPTQSAMPAFTSAFQRRAGGVLAISYLQGFLETARLALHHLA
B1: the tumour-associated neutrophil proportions entry in the assay on Hcmel12 tumours (across genotypes) is recorded as “increases”. In addition, in the assay on Hcmel12 tumours (m.12,436^83% and cytoLbNOX tumours, G-CSF plus anti-PD1), the “sensitivity of tumours to anti-PD1” value was “abolished sensitivity”. In addition, in the assay on Hcmel12 tumours (without anti-PD1), the “tumour weight versus untreated tumours at the same end-point” value was “did not affect tumour weight”.
